Data published in ChEMBL document CHEMBL1201862, “PubChem BioAssay data set” (2004).
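Compound exposure: 48 hours, 5 concentrations, 96-well plates. At the GI50, growth is halved.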 Active and inactive are the calls of the source. Rule as the data show it: active = GI50 up to about 1.1 µM and inactive = higher.

How the values were obtained:
Experiment in all cases: NCI anticancer screen, dose series, 48 h
[1] = system: SN12C
[2] = system: SF-295
[3] = system: OVCAR-3
[4] = system: OVCAR-8
[5] = system: T47D
[6] = system: OVCAR-5
[7] = system: UO-31
[8] = system: NCI-H460
[9] = system: HT-29
[10] = system: M14
[11] = system: MDA-MB-231
[12] = system: SR
[13] = system: NCI/ADR-RES
[14] = system: EKVX
[15] = system: SK-MEL-5
[16] = system: A549
[17] = system: MOLT-4
[18] = system: NCI-H522
[19] = system: U-251
[20] = system: RXF 393

SMILES | GI50 [1] | GI50 [2] | GI50 [3] | GI50 [4] | GI50 [5] | GI50 [6] | GI50 [7] | GI50 [8] | GI50 [9] | GI50 [10] | GI50 [11] | GI50 [12] | GI50 [13] | GI50 [14] | GI50 [15] | GI50 [16] | GI50 [17] | GI50 [18] | GI50 [19] | GI50 [20]
Nc1nc(NCC2(CO)CC2)cc(=O)[nH]1 | > 100 µM (inactive) | > 100 µM (inactive) | > 100 µM (inactive) | > 100 µM (inactive) | > 100 µM (inactive) | > 100 µM (inactive) | > 100 µM (inactive) | > 100 µM (inactive) | > 100 µM (inactive) | > 100 µM (inactive) | > 100 µM (inactive) | > 100 µM (inactive) | > 100 µM (inactive) | > 100 µM (inactive) | > 100 µM (inactive) | > 100 µM (inactive) | > 100 µM (inactive) | > 100 µM (inactive) | > 100 µM (inactive) | > 100 µM (inactive)
O=C1C=CC(O)C2C1CC13SSC4(CC5C(=O)C=CC(O)C5N4C1=O)C(=O)N23 (stereo not given) | 0.0601 µM (active) | 1.09 µM (active) | 0.0845 µM (active) | 0.0698 µM (active) | 0.499 µM (active) | 0.0634 µM (active) | 0.272 µM (active) | 0.681 µM (active) | 0.0426 µM (active) | 0.157 µM (active) | 0.281 µM (active) | < 0.01 µM (active) | 0.0545 µM (active) | 0.726 µM (active) | 0.412 µM (active) | 2.52 µM (inactive) | 0.0109 µM (active) | 0.0453 µM (active) | 0.234 µM (active) | 0.483 µM (active)
Cc1cnc2cc(Cl)ccc2c1SCC(=O)O | > 100 µM (inactive) | > 100 µM (inactive) | > 100 µM (inactive) | > 100 µM (inactive) | > 100 µM (inactive) | > 100 µM (inactive) | > 100 µM (inactive) | > 100 µM (inactive) | > 100 µM (inactive) | > 100 µM (inactive) | > 100 µM (inactive) | > 100 µM (inactive) | > 100 µM (inactive) | > 100 µM (inactive) | > 100 µM (inactive) | > 100 µM (inactive) | > 100 µM (inactive) | > 100 µM (inactive) | > 100 µM (inactive) | > 100 µM (inactive)
